Experimental data as given in patent US20080199489A1, “SKIN TREATMENT FORMULATIONS AND METHOD” (priority 2007, published 2008).

Legend:
chronic rosacea = experiment: Example 2: treatment of a patient with chronic rosacea; type: in vivo, human; conditions: person, topical
Source text: A person suffered from chronic rosacea. Medical practitioner proscribed regular use of a steroidal cortisone anti-inflammatory cream. […] Patient was concerned about side effects of long term cortisone application. […] Improvement however could not be maintained even with regular treatment several times weekly.

[1] = Ozone output of ozonized formulations tested with a commercial ozone sensor; type: physicochemical; conditions: added to seaweed-containing ozonized formulations
Description: Cholecalciferol, vitamin D3, also known as the sunshine vitamin, aids in tissue regeneration and healing. […] For this reason it was determined that a certain amount of vitamin D3 increases the effectiveness of formulations containing seaweeds, especially those containing callophycus serratus.
The mask is used after the water broth cleansing and activating serum activation steps. As for the serum the inventor has observed a synergistic efficacy by using the combination of treatments. Also as for the serum the exact mechanism is yet to be understood, but the mask provides yet a third matrix for the preparation, storage and application of the active ingredients. As for the formulations previously described the mask is prepared from a selection of ingredients form each of the defined categories of teas, Algaes and seaweeds, herbal plant extracts and oils, flower extracts, fruit extracts, vegetable extracts, butters and oils, and finally other additives as indicated in the formulation lists below. […] The mask is prepared from freeze dried and powdered extracts of the indicated ingredients. The water broth described above is also an ingredient in the mask. The other ingredients are added as preservatives, solvents, and viscosity control agents and are not part of the active ingredients, but rather are a delivery system. […]

[2] = tested on: basal cell carcinoma and pre-cancerous inflammation; experiment: Example 1: treatment of a patient with basal cell carcinoma and pre-cancerous inflammation; type: in vivo, human
Source text: The treatment procedure comprises application of each of the above described formulations in the order of cleansing with the water broth, activating with both the water broth and the activating serum, treatment with the mask formulation that entraps active ingredients against the affected skin and finally sealing and protecting the treated area with the cream. The affected area is first washed using the water broth. Activating serum is then applied to the skin. The water broth solution is put into the dispensing cup of aerosol generating device such as sold under the brand name Dermoxyzone Nebulizing Nanoparticle Infuser™, which infuses the nanoparticle sizes of the ozonated water broth into the epidermal layer. Absorption is optimized due to the activating serum's ability to pull moisture into the epidermis in greater amounts than could be absorbed without application of the activating serum. The Gel is not completely removed before applying the mask. The gel is wiped down with a cotton pad, leaving a residue on the skin. The mask is then applied over the residual gel covered area of the skin. The mixing serum and the powdered mask base are blended in a ratio of one to one, by volume, to form the mask just prior to use. For the treatment of one cheek for example, one tablespoon each of the powder and mixing serum are typically used. […]

C[C@]12CCC(=O)C=C1CC[C@@H]1[C@@H]2C(=O)C[C@@]2(C)[C@H]1CC[C@]2(O)C(=O)CO [1% cortisone, cortisone]
effect on rosacea inflammation (chronic rosacea): controlled most inflammation outbreaks

C=C1CC[C@H](O)C/C1=C/C=C1\CCC[C@]2(C)[C@@H]([C@H](C)CCCC(C)C)CC[C@@H]12 [Cholecalciferol]
ozone output / amount of ozone released from ozonated formulations [1]: increased the ozone output
ozone output / amount of ozone released from ozonated formulations ([1]; listed as cholecalciferol): increased significantly

N#N [liquid nitrogen]
adverse effect of treatment ([2]; conventional treatment by medical practitioner): scarring
outcome of cancer / cancerous tissue ([2]; person): cancerous tissue reappeared within a few months of treatment
